Where no end group is shown, it is not given here.

Assay [1] is described as follows: Hypocretin via ventricular injection (osmotic minipump): running wheel activity and body weight. It is filed as in vivo, rat. The following applies: third ventricle minipump, about 0.03 to about 600 μg/kg/day, vs control and untreated animals. The text has this:
The effect of hypocretin administration on the body weight of a normal rat or other rodent is investigated. The study includes ten animals in the experimental group, ten animals in the control group, and ten animals in the untreated group. […] Animals in the experimental and control groups are fitted with an Alzet Model 2004 osmotic minipump (Alza). The minipump delivers solution to the third ventricle of the brain, adjacent to the hypothalamus, for a one to six month period. The experimental group receives hypocretin peptide continuously at dosing regimes of about 0.03 μg/kg/day to about 600 μg/kg/day. The control group receives diluent. Animals in all groups are provided with a running wheel and customary rat chow is available ad libitum. Each animal is weighed daily (or another sign of excess body weight is measured), and the running wheel activity for each animal is recorded.

The nature of assay [2]: Hypocretin via jugular catheter/osmotic minipump: running wheel activity and body weight. It is filed as in vivo, rats. The note with it: about 0.03 to about 600 μg/kg/day, vs control and untreated animals. How it is done: The effect of administration of hypocretin-1 or other agonists of the hypocretin receptors on rats is investigated. The study includes ten animals in the experimental group, ten animals in the control group, and ten animals in the untreated group. […] Animals in the experimental and control groups receive a jugular catheter implant attached to an osmotic minipump. The experimental group receives hypocretin-1 or other agonist at dosing regimes of about 0.03 μg/kg/day to about 600 μg/kg/day. The control group receives diluent. Animals in all groups are provided with a running wheel and customary rat chow is available ad libitum. Each animal is weighed daily (or another sign of excess body weight is measured), and the running wheel activity for each animal is recorded.

A short description of assay [3]: Motor activity (actigraph) after Hcrt-1 injection. It is filed as in vivo. The protocol: FIG. 1. Acute changes in motor activity after Hcrt-1 administration. (a) A representative actigraph record (5 minute bins) showing the activity level during the 2 hr period following Hcrt-1 (3 μg/kg) and normal saline. Hcrt-1 produced an increase in motor activity within 5 minutes of injection that persisted for 60 minutes. […] In (b) values are mean±SE, *p<0.05; **p<0.01, Newman-Keuls test.
The motor or muscular activity level of the individual can be measured by a variety of means. Motor activity levels may be directly observed and measured by clinicians, or the individual may themselves measure their activity level which typically includes body movement or locomotion. The monitoring can include maintaining a log of activity, including intensity and duration of the activity. An actigraph device, or activity monitor, may be used. An actigraph detects activity by sensing motion via an internal accelerometer. It is a small lightweight instrument that can be worn, for example, on the wrist, waist, or ankle to record physical activity. Actigraphs are often used to estimate energy expenditure or to study motion in an individual, as described in Example 4 and shown in FIG. 1.
The differences in amplitude of motor activity following hypocretin and saline injection diminished over the following 60 minutes (FIGS. 1a, 1b).

Assay [4] in a line: Activity of hypocretin in obese humans: wrist actigraph and body weight. It is filed as in vivo. The note with it: about 0.03 to about 600 μg/kg/day for four weeks, vs placebo control group. The source says:
Hypocretin or hypocretin agonist is submitted to safety testing following usual Food and Drug Administration (FDA) requirements. Afterward, the effect of administration of hypocretin or hypocretin agonist on obese humans is investigated. The study includes ten humans in the experimental group and ten humans in the control group. Humans in the experimental and control groups receive administration by intranasal inhalant, or by transdermal or other means. The experimental group receives hypocretin or hypocretin agonist at dosing regimes of about 0.03 μg/kg/day to about 600 μg/kg/day for a period of four weeks. The control group receives a placebo. Activity levels of the humans in both groups are measured with a wrist actigraph, and each human is weighed daily (or another sign of excess body weight is measured).
Each animal is weighed daily, and the running wheel activity for each animal is recorded.

Assay [5] concerns Hcrt-1 antiserum. Description: Solid-phase radioimmunoassay (RIA) for Hcrt-1. It is filed as binding. The following applies: competition with 125I-labeled Hcrt-1 for immobilized antiserum. The protocol:
FIG. 2. The protocol for a sequential multiple antigen radioimmunoassay for hypocretin-1 (Hcrt-1) and hypocretin-2 (Hcrt-2). Sample or standard is loaded into wells onto which antiserum for Hcrt-1 has been pre-adsorbed via protein-A Subsequently, radiolabeled Hcrt-1 (Hcrt-1*) is added to the wells. Competition for the antiserum then ensues between Hcrt-1 and Hcrt-1*. The contents of the wells are then transferred to new wells onto which antiserum for Hcrt-2 has been preadsorbed and the procedure repeated but with radiolabeled Hcrt-2 (Hcrt-2*). The previous wells are washed and counted for bound radioactivity. […]
Furthermore, sensitivity is increased over that obtained with more traditional methods using identical antibodies and assay volumes. […] For example, the individual wells of a 96-well plate containing Ab-bound tracer peptide are then physically separated and counted in a gamma counter. […]
The Hcrt-1, iodinated Hcrt-1, and Hcrt-1 antiserum were obtained from Phoenix Pharmaceuticals, Inc. (530 Harbor Blvd, Belmont, Calif.). […] This enables direct reading of radioactivity in a Top Count plate reader (Packard) without the requirement to separate out individual wells. […]
Prior to RIA, Hcrt-1 is extracted from the CSF or plasma sample. […] The eluant is then dried down and re-suspended in RIA buffer ready for assay. […]

[6] abbreviates: Hcrt-1 3 μg/kg vs normal saline, actigraph record.

hypocretin: in assay [1], the running wheel activity result is reported as “increased running wheel activity” and the weight gain result is on record as “decreased weight gain”. Also, in assay [2], the running wheel activity entry is “increased running wheel activity” and the weight gain entry is “decreased weight gain”. Moreover, the motor activity result in assay [3] (first 30 minutes after injection, vs saline injection) was “increased motor activity”. In addition, in assay [4], the “activity levels (wrist actigraph)” value is on record as “increased activity levels” and the weight loss result is given as “greater weight loss”.

Take “hypocretin-1 (QPLPDCCRQKTCSCRLYELLHGAGNHAAGILTL; ends and bridges not checked; cysteine pairing not given here; UniProt O43612 34-66, looked up) [Hcrt-1, hypocretin neuropeptide derived from prepro-hypocretin; human orexin-A is reported as a 33 residue peptide of 3562 Da]”: the “IC50 value for this Hcrt-1 assay” value in assay [5] amounted to 2 fmol. The “increase of motor activity as compared to saline control” value in assay [3] (0-30 and 30-60 minutes after administration, Newman-Keuls test) was “statistically significant”. In assay [3] (setting [6]), the “onset of increase in motor activity after injection” value was ≤ 5 min and the “persistence of increase in motor activity” value was 60 min.
